Results on 19 compounds are retold here after PMC7118841 (Biomedicine & Pharmacotherapy, 2006).

Read-outs that look alike come from different tables or passages of the source.

One data set concerns TGEV. Type of data set: cell-based, transmissible gastroenteritis virus of swine. Conditions: read-out: EC50, TGEV.
In a further data set the test system is FIPV. Type of data set: cell-based, feline infectious peritonitis virus. The following applies: read-out: EC50, FIPV.
The next data set deals with SARS-V. Type of data set: cell-based, SARS coronavirus. The following applies: read-out: EC50, SARS-V.
A further data set deals with RSV-B (SM-61-48). Conditions: read-out: EC50, RSV-B (SM-61-48); MTT method; data from one experiment; cited from earlier work.
The next data set relates to MDCK. Conditions: read-out: IC50, cytotoxicity MDCK; MTT method; cited from earlier work.
The subject of the next data set is HEp-2. The following applies: read-out: IC50, cytotoxicity HEp-2; MTT method; cited from earlier work.
A further data set has as its system HMV-2. The following applies: read-out: IC50, cytotoxicity HMV-2; MTT method; cited from earlier work.
The test system of the next data set is Vero. Conditions: read-out: IC50, cytotoxicity Vero; MTT method; cited from earlier work.
In the next data set the test system is MDCK cells. The following applies: cited from earlier work.
For a further data set, the system named is FluV A (H1N1/PR8). Conditions: cited from earlier work.
The subject of a further data set is DFV. The following applies: read-out: EC50, DFV; MTT method; cited from earlier work.
In data set [1] the test system is FluV A. The following applies: read-out: EC50, FluV A; MTT method; cited from earlier work.
In data set [2] the test system is RSV. The following applies: read-out: EC50, RSV; MTT method; cited from earlier work.
For a further data set, the system named is PfluV 2. The following applies: cited from earlier work; for EC50: read-out: EC50, PfluV 2, MTT method.
A further data set deals with CDV. Conditions: cited from earlier work; for EC50: read-out: EC50, CDV, plaque reduction method.
A further data set concerns HIV-1. The following applies: read-out: EC50, HIV-1; MTT method; cited from earlier work.
The test system of data set [3] is FluV-A. The following applies: read-out: EC50 against FluV-A; compound present 1.5–3 hours; cited from earlier work.
For data set [4], the system named is RSV-A. Conditions: read-out: EC50 against RSV-A; compound present 1.5–3 hours; cited from earlier work.
The test system of data set [5] is FluV. Conditions: data not shown; cited from earlier work.
The test system of data set [6] is RSV. The following applies: HeLa cells; compound after virus adsorption; cited from earlier work.
Data set [7] relates to FluV-A. Conditions: cited from earlier work.
The test system of data set [8] is RSV-A. The following applies: cited from earlier work.
Data set [9] deals with ortho- and paramyxoviruses, herpesviruses and retroviruses (HIV-1 and 2). The following applies: cited from earlier work.
Data set [10] relates to RSV. Conditions: cited from earlier work.
In the next data set the test system is HIV. Conditions: read-out: EC50, anti-HIV, MAGI test; HeLa CD4/LTR-β-Gal cells; cited from earlier work.
Data set [11] relates to syncytium formation between MOLT-4 cells (uninfected cells) and MOLT-4/IIIb cells (infected cells). The following applies: MOLT-4 and MOLT-4/IIIb cells; cited from earlier work.
Data set [12] relates to FluV. Conditions: given either orally or intraperitoneally; cited from earlier work.
For data set [13], the system named is FluV A. Conditions: read-out: EC50 against FluV A; cited from earlier work.
Data set [14] relates to FluV A binding to MDCK cells. Conditions: 8–200 μM of compound during 1.5 hour incubation at 37 °C, moi 1; cited from earlier work.
In another data set the test system is gp-120. The following applies: polyclonal mouse antibody; cited from earlier work.
A further data set deals with CD4. The following applies: mouse antibody; cited from earlier work.
For a further data set, the system named is CXCR4. Conditions: monoclonal mouse antibody; cited from earlier work.

As for K12[(VO)3(BiW9O33)2]29H2O [PM-1208], the half-maximal effective concentration (EC50) is 2 ± 1.8 µM with TGEV, more than 3.6 µM in the data set on FIPV and 2.7 ± 0.6 µM in the data set with SARS-V.

As to `NC(=O)c1ncn([C@@H]2O[C@H](CO)[C@@H](O)[C@H]2O)n1` [Ribavirin, reference compound], the EC50 was 1.6 µM in the data set on RSV-B (SM-61-48); more than 100 µM in the data set on DFV; 5 ± 2.8 µM with FluV A [1]; 3.9 ± 3.1 µM in the data set on RSV [2]; 14 ± 4.8 µM with PfluV 2; 74 ± 35 µM with CDV. In addition, the IC50 in the data set with MDCK is more than 200 µM; with HEp-2, 52.7 µM; in the data set with HMV-2, more than 100 µM; with Vero, 100 µM. For the same compound, the “Percent viability of cells” value with MDCK cells (single compound at 100 μM, untreated cells = 100%) was 107.2 ± 1.7%; in the data set on MDCK cells (single compound at 200 μM) it was 104.8 ± 3.8%; in the data set with MDCK cells (single compound at 400 μM), 102.8 ± 4.1%. Also, the “appearance of lungs of infected mice” value in the data set with FluV A (H1N1/PR8) (40 mM ribavirin alone, data not shown) was “swollen and reddened due to congestion”. Besides, the “mice survived on the 9th day” value in the data set with FluV A (H1N1/PR8) (80 mM ribavirin aerosol every 12 hours for 4 days) was 60%. The “survival at 14 days after the infection” value with FluV A (H1N1/PR8) (80 mM ribavirin alone) is on record as 30%.

In the case of [Et2NH2]7[PTi2W10O40] [PM-518], the concentration giving a half-maximal response (EC50) in the data set with TGEV was 2.1 ± 1.1 µM; with FIPV it was more than 32.9 µM; with SARS-V, more than 50 µM; in the data set with DFV, 36.8 ± 3 µM; in the data set on FluV A [1], 62 ± 27 µM; in the data set with RSV [2] it was 26.5 µM. In addition, the concentration for a half-maximal effect (EC50) was 53 ± 39 µM with PfluV 2, more than 50 µM in the data set with CDV and 2 ± 0.8 µM in the data set with HIV-1. The “antiviral activity against CDV” value in the data set with CDV was “did not have antiviral activities”.

[K10Fe4(H2O)2 (PW9O34)2]nH2O [HS-058]: the EC50 in the data set with RSV-B (SM-61-48) is 3.1 µM; in the data set on FluV-A [3] it was more than 31 µM; in the data set on RSV-A [4], more than 20 µM. Further, the IC50 was more than 200 µM in the data set with MDCK, more than 200 µM in the data set on HEp-2, 50 µM in the data set on HMV-2 and 50 µM with Vero. In addition, in the data set on FluV [5], the “concentration inhibiting hemolysis of chicken erythrocytes by FluV” value was 58 µM. Moreover, the “concentration inhibiting syncytium formation of RSV” value in the data set on RSV [6] was 8.5 µM. In addition, the “Inhibition of RNA and protein synthesis” value with FluV-A [7] and in the data set with RSV-A [8] was “Probably no” throughout. Besides, the “Inhibition of fusion between infected and uninfected cells” value in the data set on FluV-A [7] is given as “Unclear”. Moreover, the “Inhibition of fusion of virus envelope and cell membrane” value in the data set with RSV-A [8] is listed as “Unclear”.

As for K7[BVW11O40] [PM-47], the half-maximal effective concentration (EC50) in the data set on DFV was 10.5 ± 6.9 µM; with FluV A [1], 11.5 ± 0.6 µM; with RSV [2], 29 µM; with PfluV 2, 67.1 µM; in the data set with CDV it was 6 ± 0.6 µM; with HIV-1, 0.03 ± 0.01 µM.

On to [(Me3NH)8Si2W18Nb6O77]nH2O [HS-106], for which the EC50 in the data set on RSV-B (SM-61-48) was 4.5 µM. Also, the IC50 is more than 200 µM with MDCK, more than 200 µM in the data set on HEp-2, 20.7 µM in the data set with HMV-2 and 148 µM in the data set on Vero. For the same compound, the antiviral activity result in [9] is listed as “broad spectrum antiviral activity”. Moreover, the anti-RSV activity result with RSV [10] was “most potent and selective anti-RSV activity”.

As to “[NH4]12H(BiW9O33)3Bi6(OH)3(H2O)3V4H10]25H2O [PM-1210]”, the EC50 was found to be 1.6 ± 1.1 µM in the data set on TGEV, 0.74 ± 0.4 µM in the data set with FIPV and 0.76 ± 0.3 µM with SARS-V.

Turning to K11H[(VO)3(SbW9O33)2]27H2O [PM-1002], the EC50 with TGEV was 0.6 ± 0.4 µM; in the data set on SARS-V, 0.25 ± 0.07 µM; in the data set with DFV it was 2 ± 1.4 µM; with FluV A [1], 4 ± 1.7 µM; with RSV [2], 0.75 ± 0.05 µM; with PfluV 2, 0.75 ± 0.05 µM. Also, the 50% effective concentration (EC50) was 2.8 ± 1 µM in the data set with CDV, 0.03 ± 0.01 µM in the data set with HIV-1 and 0.018 µM in the data set on HIV. In addition, in data set [11], the “inhibition of syncytium formation” value was “inhibited syncytium formation”.

Consider “(NBu4)4(PriNH3) [PTi2W10O38(O2)2]2H2O [PM-803]”, for which the EC50 with TGEV was 0.34 ± 0.3 µM; with FIPV, more than 21 µM.

Consider “Na7H9{Eu3O(OH)3(H2O)3}2Al2(Nb6O19)5}47H2O [PM-802]”, for which the figures for the half-maximal effective concentration (EC50) in the data set with TGEV, in the data set on FIPV and with SARS-V were 0.5 ± 0.5 µM, 0.03 ± 0.01 µM and more than 50 µM, respectively.

K12Nb6P2W12O62 [HS-158]: in the data set with RSV-B (SM-61-48), the EC50 was 2.7 µM. In addition, the half-inhibitory concentration (IC50) in the data set on MDCK was 164 µM; in the data set on HEp-2 it was 82.7 µM; in the data set on HMV-2 it was 53.7 µM; with Vero, more than 200 µM.

Consider K12[(VO)3(PW9O34)2]nH2O [PM-1213], for which the concentration giving a half-maximal response (EC50) in the data set on TGEV is 1.7 ± 1 µM; with FIPV it was more than 10.5 µM; in the data set with SARS-V it was 0.47 ± 0.14 µM.

[Na16Fe4(H2O)2(P2W15O56)2]nH2O [HS-054]: the EC50 in the data set with RSV-B (SM-61-48) is 7.8 µM. For the same compound, the IC50 with MDCK was more than 200 µM; in the data set with HEp-2, 88 µM; in the data set with HMV-2, more than 200 µM; in the data set with Vero it was 50 µM.

As to K12[(VO)3(AsW9O33)2]12H2O [PM-1207], the EC50 was 1.9 ± 1.4 µM in the data set with TGEV, 0.09 ± 0.04 µM in the data set with FIPV and 0.9 ± 0.24 µM with SARS-V.

Take Ce2H[BW11Mn(H2O)O39] [HPB-2]: in the data set on FluV [12], the “therapeutic effect against FluV infection in mice” value is reported as “potent therapeutic effect”.

With [Pri2NH2]5[PTiW11O40] [PM-520], the EC50 in the data set on TGEV is 1.4 ± 1.3 µM; with FIPV, 0.76 ± 0.5 µM; with SARS-V, 4.9 ± 1.4 µM; in the data set on DFV, 11.7 ± 7.1 µM; with FluV A [1], 45 ± 26 µM; in the data set with RSV [2], 0.74 ± 0.6 µM. Further, the EC50 was 23 ± 2.4 µM with PfluV 2, 7.4 ± 0.4 µM in the data set with CDV and 2 ± 0.5 µM in the data set on HIV-1.

K9H6(Ge2Ti6W18O77)16H2O [PM-504]: the concentration giving a half-maximal response (EC50) in the data set on TGEV is 1.4 ± 0.5 µM; in the data set on FIPV it was 0.4 ± 0.3 µM; with SARS-V, 3.5 ± 2.4 µM; with FluV A [13] it was 1.3 µM. In data set [14], the “inhibition of the binding of FluV to MDCK cells (FACS)” value was “inhibited the binding”.

In the case of K5[SiVW11O40] [PM-43], the EC50 was 10.7 ± 6.7 µM with DFV; 8.4 ± 6.5 µM in the data set with FluV A [1]; 1.6 µM in the data set on RSV [2]; more than 100 µM in the data set on PfluV 2; 7.5 ± 1 µM in the data set with CDV; 0.3 ± 0.12 µM in the data set with HIV-1. The “antiviral activity against PfluV 2” value in the data set on PfluV 2 is “did not have antiviral activities”.

Take K10Na[(VO)3(SbW9O33)2]26H2O [PM-1001]: the EC50 with TGEV is 0.14 ± 0.1 µM; in the data set on FIPV, 0.2 ± 0.1 µM; in the data set with SARS-V, 0.7 ± 0.4 µM; with FluV A [1], 1.75 ± 1.6 µM; in the data set with RSV [2], less than 0.16 µM; in the data set with PfluV 2, 1.1 ± 0.9 µM. Moreover, the figures for the EC50 in the data set with CDV, in the data set on HIV-1 and in the data set with HIV were 5.7 ± 0.5 µM, 0.14 ± 0.17 µM and 0.01 µM, respectively. In addition, the “inhibition of syncytium formation” value in data set [11] was “inhibited syncytium formation”. Further, the “inhibition of binding of anti-gp120 antibody to gp-120” value in the data set on gp-120 is given as “inhibited”. In the data set with CD4, the “inhibition of binding of anti-CD4 antibody to its target molecule” value was “did not inhibit”. Moreover, the “inhibition of binding of anti-CRCX4 antibody to its target molecule” value in the data set on CXCR4 is on record as “did not inhibit”.
